In patent US20040121965A1, “Method of treating resistant tumors” (Wyeth Holdings Corporation, priority 2002, published 2004):
Read-outs that look alike come from different tables or passages of the source.

Columns and labels:
KB-3-1 = assay: Cell survival assay (SRB), KB-3-1; format: cell-based, human; settings: Homo sapiens
How it was run: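 SRB protein stain as survival read-out; IC50 = conc. giving 50% growth inhibition. Compound serially diluted, duplicate wells, 3 d exposure; TCA fixation (10% final, 1 h, 4 °C), 0.04% SRB/1% acetic acid 10 min, solubilised in 10 mM Trizma Base, A read.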

KB-8-5 (MDR1+) = assay: Cell survival assay (SRB), KB-8-5 (MDR1+); settings: for IC50: Homo sapiens, MDR1, read-out: In vitro IC50 (nM) KB85
KB-V1 (MDR1++) = assay: Cell survival assay (SRB), KB-V1 (MDR1++); settings: for IC50: Homo sapiens, read-out: In vitro IC50 (nM) KBV1
[1] = tested on: Human Melanoma Carcinoma Lox; settings: staged LOX xenograft; at MTD ('<': MTD not achieved); days 11-15
Description: 2.4. Growth of Tumors in Nude Mice. […] In these experiments, xenografts are implanted subcutaneously into the flanks of nude mice. […] Relative tumor mass compared to controls are assessed during the 21-day post-staging period.
Groups of 5 female nu/nu mice are injected with 1.5×10^6 KB-3-1 (A) or Lox cells (B). […] Relative tumor growth is determined during the experiment and % T/C calculated. Statistical analyses are Student's t-test of treated time points vs. vehicle (*, P<0.05; **, P<0.01)

[2] = KB 3-1, 72 h, amount of drug needed to kill 50% of cells after three days continuous exposure, Table 11, read-out: IC50 in parental cell line KB-3-1
[3] = KB 3-1, KB-3-1 cells (paclitaxel-sensitive parent), read-out: In vitro IC50 (nM) KB-3-1

Row | SMILES | IC50 (KB-3-1; [2]) [nM] | IC50 (KB-3-1; [3]) [nM] | Ratio KB85/KB (KB-8-5 (MDR1+)) | IC50 (KB-8-5 (MDR1+)) [nM] | Ratio KBV1/KB (KB-V1 (MDR1++)) | IC50 (KB-V1 (MDR1++)) [nM] | Activity in nude mice animal model (% T/C @ MTD on days 11-15) LOX [1]
1 | CN[C@H](C(=O)N[C@H](C(=O)N(C)[C@H](/C=C(\C)C(=O)O)C(C)C)C(C)(C)C)C(C)(C)c1cccc(C(F)(F)F)c1 [Example 62, N,β,β-Trimethyl-3-(trifluoromethyl)-L-phenylalanyl-N^1-[(1S,2E)-3-carboxy-1-isopropyl-2-butenyl]-N^1,3-dimethyl-L-valinamide] | 0.7 | 0.647 | 2.6 | 1.7 | 66.0 | 42.7 | 2%
2 | CN[C@@H](C(=O)N[C@H](C(=O)N(C)[C@H](/C=C(\C)C(=O)O)C(C)C)C(C)(C)C)C(C)(C)c1cc(F)cc(F)c1 [Example 65, 3,5-Difluoro-N,β,β-trimethyl-D-phenylalanyl-N^1-[(1S,2E)-3-carboxy-1-isopropylbut-2-enyl]-N^1,3-dimethyl-L-valinamide] | 2 | 2 | 1.5 | 2.9 | 38.8 | 77.6 | 8%
3 | CN[C@H](C(=O)N[C@H](C(=O)N(C)[C@H](/C=C(\C)C(=O)O)C(C)C)C(C)(C)C)C(C)(C)C1CCCCC1 [Example 70, 3-Cyclohexyl-N-methyl-L-valyl-N-1-[(1S,2E)-3-carboxy-1-isopropyl-2-butenyl]-N-1,3-dimethyl-L-valinamide] | 3.7 | 3.7 | 1.5 | 5.6 | 40.9 | 151 | 4%
4 | CC/C(=C\[C@H](C(C)C)N(C)C(=O)[C@@H](NC(=O)[C@@H](NC)C(C)(C)c1ccccc1)C(C)(C)C)C(=O)O [Example 78, N,β,β-Trimethyl-L-phenylalanyl-N^1-[(1S,2E)-3-carboxy-1-isopropyl-2-pentenyl]-N 1,3-dimethyl-L-valinamide] | 5.4 | 5.4 | 2.5 | 13.7 | 94.9 | 512 | 17%
5 | CN[C@H](C(=O)N[C@H](C(=O)N(C)[C@H](/C=C(\C)C(=O)O)C(C)C)C(C)(C)SC)C(C)(C)c1ccccc1 [Example 80, (E,4S)-2,5-dimethyl-4-{methyl[(2R)-3-methyl-2-{[(2S)-3-methyl-2-(methylamino)-3-phenylbutanoyl]amino}-3-(methylsulfanyl)butanoyl]amino}-2-hexenoic Acid] | 2.7 | 2.7 | 2.6 | 7.1 | 112.2 | 303 | 8^4%
6 | CN[C@H](C(=O)N[C@H](C(=O)N(C)[C@H](/C=C(\C)C(=O)O)C(C)C)C(C)C)C(C)(C)c1ccccc1.O=C(O)C(F)(F)F [Example 105, N,β,β-trimethyl-L-phenylalanyl-N^1-[(1S,2E)-3-carboxy-1-isopropyl-2-butenyl]-N^1-methyl-L-valinamide Trifluoroacetic Acid] | 5.2 | 5.25 | 2.1 | 11.1 | 54.9 | 288 | 8%
7 | CC[C@H](C)[C@H](NC(=O)[C@@H](NC)C(C)(C)c1ccccc1)C(=O)N(C)[C@H](/C=C(\C)C(=O)O)C(C)C.O=C(O)C(F)(F)F [Example 106, N,β,β-trimethyl-L-phenylalanyl-N^1-[(1S,2E)-3-carboxy-1-isopropyl-2-butenyl]-N^1-methyl-L-isoleucinamide Trifluoroacetic Acid] | 15.6 | 16 | 2.2 | 34 | 42.3 | 660 | <47^4%
